Data as given in PubChem BioAssay AID330 (DTP/NCI, 2004).
“And” between values parts separate entries of the source, which are not always exact repeats. Equal entries are not always repeated. Toxic doses and inconclusive results are not listed. How the source made its calls: active means survival T/C of 150% or more; inactive means T/C below 125% in these data. Peptide text beside a SMILES is read from it. * marks the point of attachment. Boc = CC(C)(C)OC(=O)*

Test system: P388 leukemia ip, CD2F1 mice, survival T/C
Experiment: NCI In Vivo Anticancer Drug Screen. Data for tumor model P388 Leukemia (intraperitoneal) in CD2F1 (CDF1) mice
Details: endpoint: median survival time, higher = longer survival
Summary of the method: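 Mice carrying the transplanted tumor received test compound or vehicle. Survival was recorded in each group, and the value is the treated-group measurement divided by that of the vehicle-treated control group.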

[1] = dose: 100.0 mg/kg/injection, schedule: Q04DX002 (ip), vehicle: saline with Tween-80
[2] = dose: 50.0 mg/kg/injection, schedule: Q01DX009 (ip), vehicle: Klucel (hydroxypropylcellulose) (HPC)
[3] = dose: 100.0 mg/kg/injection, schedule: Q01DX009 (ip), vehicle: Klucel (hydroxypropylcellulose) (HPC)
[4] = dose: 200.0 mg/kg/injection, schedule: Q01DX009 (ip), vehicle: Klucel (hydroxypropylcellulose) (HPC)
[5] = dose: 60.0 mg/kg/injection, schedule: Q01DX005 (ip), vehicle: saline with Tween-80
[6] = dose: 120.0 mg/kg/injection, schedule: Q01DX005 (ip), vehicle: saline with Tween-80
[7] = dose: 60.0 mg/kg/injection, schedule: Q01DX005 (ip), vehicle: Klucel (hydroxypropylcellulose) (HPC)
[8] = dose: 120.0 mg/kg/injection, schedule: Q01DX005 (ip), vehicle: Klucel (hydroxypropylcellulose) (HPC)
[9] = dose: 240.0 mg/kg/injection, schedule: Q01DX005 (ip), vehicle: Klucel (hydroxypropylcellulose) (HPC)
[10] = dose: 50.0 mg/kg/injection, schedule: Q01DX005 (ip), vehicle: saline with Tween-80
[11] = dose: 100.0 mg/kg/injection, schedule: Q01DX005 (ip), vehicle: saline with Tween-80
[12] = dose: 200.0 mg/kg/injection, schedule: Q01DX005 (ip), vehicle: saline with Tween-80

Measured: T/C

CSc1snc2c1c(=O)n(C)c(=O)n2C
inactive: dose: 25.0 mg/kg/injection, schedule: Q04DX002 (ip), vehicle: saline with Tween-80 98 % of control | dose: 50.0 mg/kg/injection, schedule: Q04DX002 (ip), vehicle: saline with Tween-80 101 % of control | [1] 99 % of control

CCOC(=O)c1cnc2ncccn12
inactive: [2] 99 % of control | [3] 101 % of control | [4] 91 % of control

COc1ccc(/C(C#N)=C2\OC(=O)c3ccccc32)cc1OC
inactive: dose: 6.25 mg/kg/injection, schedule: Q01DX009 (ip), vehicle: saline with Tween-80 97 % of control | dose: 12.5 mg/kg/injection, schedule: Q01DX009 (ip), vehicle: saline with Tween-80 89 % of control | dose: 50.0 mg/kg/injection, schedule: Q01DX009 (ip), vehicle: saline with Tween-80 90 % of control | dose: 400.0 mg/kg/injection, schedule: Q01DX009 (ip), vehicle: saline with Tween-80 90 % of control

COc1cccc(/C=C2\CCc3ccccc3C2=O)c1OC
inactive: [2] 119 % of control | [3] 106 % of control | [4] 110 % of control

O=C1C2CCCC1C(c1ccc(Cl)cc1)NC2c1ccc(Cl)cc1 (configuration not stated)
inactive: dose: 100.0 mg/kg/injection, schedule: Q04DX003 (ip), vehicle: saline 103 % of control | dose: 200.0 mg/kg/injection, schedule: Q04DX003 (ip), vehicle: saline 103 % of control | dose: 400.0 mg/kg/injection, schedule: Q04DX003 (ip), vehicle: saline 96 % of control

CC(C)(C)c1cc(Cc2ccccc2)c(O)c(C(C)(C)C)c1
inactive: dose: 50.0 mg/kg/injection, schedule: Q01DX005 (ip), vehicle: distilled water + alcohol 100 % of control | dose: 100.0 mg/kg/injection, schedule: Q01DX005 (ip), vehicle: distilled water + alcohol 103 % of control | dose: 200.0 mg/kg/injection, schedule: Q01DX005 (ip), vehicle: distilled water + alcohol 111 % of control

COC(=O)/C(C(C)=O)=C(\OC(C)=O)c1ccc(OC)c(OC)c1
inactive: [5] 94 % of control | [6] 100 % of control | dose: 240.0 mg/kg/injection, schedule: Q01DX005 (ip), vehicle: saline with Tween-80 92 % of control

O=C(CCCCO)c1nc2ccccc2s1
inactive: [7] 98 % of control | [8] 102 % of control | [9] 95 % of control

C=C[C@@H]1C[C@@]2(C)O[C@@H]([C@@H](OCc3ccccc3)[C@@H]1OC)[C@@H](C)O2
inactive: dose: 100.0 mg/kg/injection, schedule: Q01DX001 (ip), vehicle: saline with Tween-80 96 % of control | dose: 200.0 mg/kg/injection, schedule: Q01DX001 (ip), vehicle: saline with Tween-80 104 % of control | dose: 400.0 mg/kg/injection, schedule: Q01DX001 (ip), vehicle: saline with Tween-80 104 % of control

CC1C=CC(c2ccccc2)C2C(=O)OC(=O)C12 (configuration not stated)
inactive: [5] 116 % of control | [6] 114 % of control

[CH3][Sn]1([CH3])[O]C2C(O)OC(CO)C(O)C2[O]1 (configuration not stated)
inactive: dose: 6.25 mg/kg/injection, schedule: Q01DX005 (ip), vehicle: Klucel (hydroxypropylcellulose) (HPC) 108 % of control and 113 % of control | dose: 12.5 mg/kg/injection, schedule: Q01DX005 (ip), vehicle: Klucel (hydroxypropylcellulose) (HPC) 110 % of control and 111 % of control (2×) | dose: 25.0 mg/kg/injection, schedule: Q01DX005 (ip), vehicle: Klucel (hydroxypropylcellulose) (HPC) 109 % of control and 120 % of control and 121 % of control

Cc1nn(CCO)c(=O)c(C#N)c1C
inactive: dose: 25.0 mg/kg/injection, schedule: Q04DX002 (ip), vehicle: distilled water + Tween-80 103 % of control | dose: 50.0 mg/kg/injection, schedule: Q04DX002 (ip), vehicle: distilled water + Tween-80 108 % of control | dose: 100.0 mg/kg/injection, schedule: Q04DX002 (ip), vehicle: distilled water + Tween-80 101 % of control | dose: 200.0 mg/kg/injection, schedule: Q04DX002 (ip), vehicle: distilled water + Tween-80 94 % of control

CCOC(=O)C1Cc2nc(N)ncc2C1=O (configuration not stated)
inactive: dose: 15.0 mg/kg/injection, schedule: Q01DX009 (ip), vehicle: saline with Tween-80 96 % of control | dose: 30.0 mg/kg/injection, schedule: Q01DX009 (ip), vehicle: saline with Tween-80 107 % of control | dose: 60.0 mg/kg/injection, schedule: Q01DX009 (ip), vehicle: saline with Tween-80 114 % of control

O=C1C=CC(Nc2ccccc2[N+](=O)[O-])C1Nc1ccccc1[N+](=O)[O-] (configuration not stated)
inactive: [5] 114 % of control | [6] 113 % of control

CCOC(=O)C(CC)/C(C)=N\NC(N)=S (configuration not stated)
inactive: [7] 100 % of control | [8] 101 % of control | [9] 99 % of control

C/C(=N\NC1=NCCN1)c1cn(C2=NCCN2)nc1C
inactive: dose: 15.0 mg/kg/injection, schedule: Q01DX005 (ip), vehicle: saline 99 % of control | dose: 30.0 mg/kg/injection, schedule: Q01DX005 (ip), vehicle: saline 97 % of control | dose: 60.0 mg/kg/injection, schedule: Q01DX005 (ip), vehicle: saline 102 % of control and 106 % of control

CC(=O)Nc1cc(NC(C)=O)c(N=O)c(NC(C)=O)n1
inactive: dose: 50.0 mg/kg/injection, schedule: Q01DX009 (ip), vehicle: saline 100 % of control | dose: 100.0 mg/kg/injection, schedule: Q01DX009 (ip), vehicle: saline 99 % of control | dose: 200.0 mg/kg/injection, schedule: Q01DX009 (ip), vehicle: saline 91 % of control

CC12CC3(C)CC(C)(C1)CC(C(Cl)C(=O)O)(C2)C3 (configuration not stated)
inactive: dose: 25.0 mg/kg/injection, schedule: Q01DX009 (ip), vehicle: suspension in saline 98 % of control | dose: 50.0 mg/kg/injection, schedule: Q01DX009 (ip), vehicle: suspension in saline 100 % of control

CC(C)(C)OC(=O)NCC(=O)NCC(=O)O (Boc-Gly-Gly-OH)
inactive: dose: 50.0 mg/kg/injection, schedule: Q01DX005 (ip), vehicle: saline 102 % of control | dose: 100.0 mg/kg/injection, schedule: Q01DX005 (ip), vehicle: saline 102 % of control | dose: 200.0 mg/kg/injection, schedule: Q01DX005 (ip), vehicle: saline 101 % of control

CC[C@@H]1C[C@@H]2CN3CCc4c([nH]c5ccc(OC)c(Cc6ccc(OC)c(OC)c6)c45)C(C(=O)OC)(C2)C13
inactive: dose: 2.5 mg/kg/injection, schedule: Q01DX009 (ip), vehicle: Klucel (hydroxypropylcellulose) (HPC) 88 % of control | dose: 5.0 mg/kg/injection, schedule: Q01DX009 (ip), vehicle: Klucel (hydroxypropylcellulose) (HPC) 103 % of control | dose: 10.0 mg/kg/injection, schedule: Q01DX009 (ip), vehicle: Klucel (hydroxypropylcellulose) (HPC) 92 % of control | dose: 20.0 mg/kg/injection, schedule: Q01DX009 (ip), vehicle: Klucel (hydroxypropylcellulose) (HPC) 95 % of control

COc1ccc2nc(CC(=N)c3ccc(N(C)C)cc3)ccc2c1
inactive: [10] 89 % of control | [11] 89 % of control | [12] 92 % of control

CCOC(=O)CCC1(C(=O)OC)C(=O)CCCCCCCC1C(=O)OC (configuration not stated)
inactive: [10] 101 % of control | [11] 98 % of control | [12] 94 % of control

Cc1ccc(S(=O)(=O)S(=O)(=O)c2ccc(C)cc2)cc1
inactive: [1] 96 % of control | dose: 200.0 mg/kg/injection, schedule: Q04DX002 (ip), vehicle: saline with Tween-80 99 % of control | dose: 400.0 mg/kg/injection, schedule: Q04DX002 (ip), vehicle: saline with Tween-80 104 % of control

COc1ccc(C23OCCN2C(=O)c2ccccc23)cc1 (configuration not stated)
inactive: dose: 60.0 mg/kg/injection, schedule: Q01DX005 (ip), vehicle: saline + Tween-80 + alcohol 99 % of control | dose: 120.0 mg/kg/injection, schedule: Q01DX005 (ip), vehicle: saline + Tween-80 + alcohol 100 % of control | dose: 240.0 mg/kg/injection, schedule: Q01DX005 (ip), vehicle: saline + Tween-80 + alcohol 101 % of control
